# “And” between values parts separate entries of the source, which are not always exact repeats. Equal values may be shown once. Read-outs that look alike come from different tables or passages of the source.
# How the values were obtained:
# E. coli MurB [1] = target: T1, E. coli MurB (Escherichia coli, UniProt P08373); assay: ITC assay of E. coli MurB activity; assay type: biochemical
# Procedure: E. coli MurB was diluted in assay buffer (50 mM Tris pH 8.0, 1 mM TCEP, 20 mM KCl, 0.005% Triton X-100) to a final concentration of 1.3 nM. The buffer contained the MurB substrates at the following concentrations in the ITC test cell: 100 μM NADPH and 60 μM UDP-GlcNAc-EP. DMSO was also added at a final concentration of 2.7% (v/v).
# (§1) The inhibition of E. coli MurB by (2R)-2-{2-[3-(4-tert-butylphenoxy)phenyl]-4-oxo-1,3-thiazolidin-3-yl} hexanoic acid, a 4-thiazolidinone compound, was studied by the same method. Reactions were carried in 50 mM Tris, pH 8.0, 1 mM TCEP, 20 mM KCl, 0.005% Triton, in the presence of 100 μM NADPH and 60 μM EP. The concentration of MurB was 1.3 nM.
# E. coli MurB [2] = target: T1, E. coli MurB; assay: Absorbance method measuring NADPH depletion at 340 nm (MurB activity); assay type: biochemical
# Procedure: as §1
# Other kinetic measurements were performed to further characterize E. coli MurB by ITC.
# E. coli GyrAB [3] = target: T2, E. coli GyrAB (Escherichia coli, UniProt P0AES6); assay: ITC assay of E. coli GyrAB ATPase activity; assay type: biochemical; conditions: read-out: Ki, ADP
# Procedure: The titration was started manually after the DP signal was stabilized.
# The data were analyzed as follows: the power value (μcal/sec) after each injection is subtracted from the initial power value (before any injection occurs).
# E. coli GyrAB [4] = target: T2, E. coli GyrAB; assay: Independent assay of GyrAB enzyme activity using phosphate detection; assay type: biochemical; conditions: read-out: Ki, ADP
# E. coli MurC [5] = target: T3, E. coli MurC (Escherichia coli, UniProt P17952); assay: biochemical
# E. coli MurC [6] = target: T3, E. coli MurC; assay: biochemical; remark: listed apart in the source
# Procedure: E. coli MurC was diluted in assay buffer (50 mM Tris pH 8.0, 1 mM Tris (2-carboxyethyl) phosphine hydrochloride (TCEP), 0.01% (w/v) Triton X-100, 20 mM ammonium formate) to a final concentration of 10 nM. […] The titration was started manually after the DP signal was stabilized. A total of 16 injections (2, 2, 4, 4, 4, 4, 8, 8, 16, 16, 32, 32, 32, 32, 32, and 32 μl) were performed. Time spacing in between injections was set at 120 sec for all injections.
# All the reactions were carried in 50 mM Tris, pH 8.0, 1 mM TCEP, 0.01% (w/v) Triton, and 20 mM ammonium formate. The final concentration of E. coli MurC was 10 nM. […] The reaction was initiated with the addition of MurC and placed into the test cell. AMP-PCP was dissolved in the buffer described above at a final concentration of 2.8 mM and placed into the titration syringe.
# T3 sequence (P17952 whole entry): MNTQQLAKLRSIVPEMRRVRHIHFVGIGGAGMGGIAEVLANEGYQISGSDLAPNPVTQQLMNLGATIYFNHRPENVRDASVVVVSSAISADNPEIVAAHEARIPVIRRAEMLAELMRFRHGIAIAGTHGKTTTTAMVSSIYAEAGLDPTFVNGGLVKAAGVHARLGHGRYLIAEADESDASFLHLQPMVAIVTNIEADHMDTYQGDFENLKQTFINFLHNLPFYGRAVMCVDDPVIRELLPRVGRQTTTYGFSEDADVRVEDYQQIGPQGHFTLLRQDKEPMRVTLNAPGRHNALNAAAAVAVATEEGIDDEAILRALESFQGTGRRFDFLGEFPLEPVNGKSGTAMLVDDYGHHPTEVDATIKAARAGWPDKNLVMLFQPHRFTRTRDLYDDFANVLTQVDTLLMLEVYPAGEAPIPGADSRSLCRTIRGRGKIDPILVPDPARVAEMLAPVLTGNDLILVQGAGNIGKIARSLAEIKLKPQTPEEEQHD
# T1 sequence (P08373 whole entry): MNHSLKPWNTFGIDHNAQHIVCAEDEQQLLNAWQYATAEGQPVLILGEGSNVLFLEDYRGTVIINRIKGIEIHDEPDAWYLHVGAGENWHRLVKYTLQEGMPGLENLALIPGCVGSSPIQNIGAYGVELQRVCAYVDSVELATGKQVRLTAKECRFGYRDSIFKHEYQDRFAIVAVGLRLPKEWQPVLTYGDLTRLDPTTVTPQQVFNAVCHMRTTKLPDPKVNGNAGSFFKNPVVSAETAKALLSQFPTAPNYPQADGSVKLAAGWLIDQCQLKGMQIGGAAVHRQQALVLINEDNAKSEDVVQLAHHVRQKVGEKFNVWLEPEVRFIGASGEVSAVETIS
smiles,measurement,setting,value
"CCCC[C@H](C(=O)O)N1C(=O)CSC1c1cccc(Oc2ccc(C(C)(C)C)cc2)c1 (stereo partly drawn) [4-thiazolidinone analogue, (2R)-2-{2-[3-(4-tert-butylphenoxy)phenyl]-4-oxo-1,3-thiazolidin-3-yl} hexanoic acid]",IC50,"E. coli MurB [1]; 1.3 nM MurB, 100 μM NADPH, 60 μM UDP-GlcNAc-EP, read-out: 4-thiazolidinone analogue IC50",154 µM
same,IC50,"E. coli MurB [2]; NADPH depletion at 340 nm, read-out: 4-thiazolidinone analogue IC50",101 µM
Nc1ncnc2c1ncn2[C@@H]1O[C@H](COP(=O)(O)OP(=O)(O)O)[C@@H](O)[C@H]1O [ADP],Ki,E. coli GyrAB [3],18 µM
same,Ki,E. coli GyrAB [4],18 µM
"Nc1ncnc2c1ncn2[C@@H]1O[C@H](COP(=O)(O)OP(=O)(O)CP(=O)(O)O)[C@@H](O)[C@H]1O [AMP-PCP, β,γ-Methyleneadenosine 5′-triphosphate]",IC50,E. coli MurC [5]; AMP-PCP IC50,40 µM and 35 µM
same,IC50,E. coli MurC [6],27 µM
NC(=O)C1=CN([C@@H]2O[C@H](COP(=O)(O)OP(=O)(O)OC[C@H]3O[C@@H](n4cnc5c(N)ncnc54)[C@H](OP(=O)(O)O)[C@@H]3O)[C@@H](O)[C@H]2O)C=CC1 [NADPH],Km,"E. coli MurB [1]; read-out: KM, NADPH",9 µM
same,Km,"E. coli MurB [2]; read-out: KM, NADPH",9 µM
"C=C(O[C@H]1[C@H](O)[C@@H](CO)O[C@H](OP(=O)(O)OP(=O)(O)OC[C@H]2O[C@@H](n3ccc(=O)[nH]c3=O)[C@H](O)[C@@H]2O)[C@@H]1NC(C)=O)C(=O)O [UDP-GlcNAc−EP, uridine diphosphate-GlcNAc-enolpyruvate]",Km,"E. coli MurB [1]; read-out: KM, UDP-GlcNAc-EP",8 µM
same,Km,"E. coli MurB [2]; read-out: KM, UDP-GlcNAc-EP",6 µM
CC(=O)N[C@H]1[C@@H](OP(=O)(O)OP(=O)(O)OC[C@H]2O[C@@H](n3ccc(=O)[nH]c3=O)[C@H](O)[C@@H]2O)O[C@H](CO)[C@@H](O)[C@@H]1O[C@H](C)C(=O)O [UDP-MurNAc],Km,"E. coli MurC [5]; Phosphate detection, read-out: KM, UDP-MurNAc",19 µM
same,Km,"E. coli MurC [6]; ITC, read-out: KM, UDP-MurNAc",21 µM
